Assay results published in US20250302762A1, “NANOMATERIAL DELIVERY VEHICLE AND METHOD OF USE THEREOF” (University of Connecticut, priority 2022, published 2025).

Assays:
[1] = Buffering capacity (acid-base titration), proton sponge effect; type: physicochemical; settings: FIG. 4D
Protocol: JBNP Characterization. The particles and ζ potential of the JBNPs were measured by dynamic light scattering (Zetasizer) and the morphology was observed by transmission electron microscope (TEM). The get retardation assay was conducted at 0.8% low-melting agarose gel followed by electrophoresis. The UV-Vis absorption spectra were recorded with a NanoDrop One. The buffering capacity of JBNPs and polymers, JBNP and cationic polymers at the same 0.08 μmol were titrated by either adding the 2 μL of 10 mM HCl or 10 mM NaOH.

cells = experiment: Delivery of small RNAs, mRNAs and albumin via Arg-JBNP; type: cell-based; settings: FIGS. 3A-3E
Protocol: Multi-functional JBNPs. Multi-functional JBNPs were prepared by mixing a cargo molecule (e.g., RNA, biologically active small molecule, protein) with the multi-functional JBNT at an appropriate molar ratio in nuclease-free water, followed by sonication with a sonicator at 100% amplitude, for 2 min and 30 s, at room temperature. The concentrations of different components are shown as below: c(JBNT)=1 mg/mL; c(siRNA)=5 uM; c(mRNA)=0.05 mg/mL. c(protein)=0.1 mg/mL. The ratios (volume to volume ratio) for each cargo: (4:1 ratio (Arg-JBNT:siRNA), (20:1 ratio Arg-JBNT:mRNA), (3:1 Arg-JBNT: protein).
Arg-JBNP-siRNA were assembled by mixing Arg-JBNT(1 mg/ml) and siRNA-AF488 (5 uM) in nuclease-free water as ratio of volume to volume of 4:1. Arg-JBNP-mRNA were assembled by mixing Arg-JBNT (1 mg/ml) to Cas9mRNA (0.05 mg/ml) as ratio of volume to volume of 20:1. Arg-JBNP-albumin were assembled by mixing Arg-JBNT (1 mg/ml) to albumin (0.1 mg/ml) as ratio of volume to volume, 3:1. Then mixture of Arg-JBNT and cargoes in nuclease-free water are sonicated with sonicator at 100% amplitude for 2 min and 30 sec.

SMILES	proton-sponge effect capacity [1]	delivery of cargo (cells)
CNc1nc2c(c(N)nc(=O)n2CCN[C@@H](Cc2c[nH]cn2)C(=O)O)c(=O)[nH]1 [Histidine-JBNTs]	superior proton-sponge effect capacity	–
CNc1nc2c(c(N)nc(=O)n2CCN[C@@H](CCCNC(=N)N)C(=O)O)c(=O)[nH]1 [ArgJBNTs]	–	successful delivery of small RNAs, mRNAs, and albumin (protein)
